Results taken from the supplement of paper PMC5412046.
Structures can show the parent of a compound that is named as a salt.

How the values were obtained:
[1] = system: SB.mhdgc-1; test: viability at highest tested concentration (MAXR) relative to DMSO; higher = less cytotoxic; details: SB.mhdgc-1 (hereditary c.1380delA CDH1 gastric cancer)
In short: (§1)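 Hereditary or sporadic patient-derived gastric cancer cells (500 cells in 5 μL medium per 1536 well) received 23 nL compound in DMSO by pintool at 11 threefold-diluted concentrations, with the top concentration recorded per compound. After 48 h, CellTiter-Glo was added for 30 min at room temperature and luminescence read on a ViewLux. Values are DMSO-normalised viability, either at the highest concentration or as trapezoidal area under the curve.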

[2] = system: SB.msgc-1; test: as above; details: SB.msgc-1 (sporadic gastric cancer)
In short: as §1

[3] = system: SB.mhdgc-1; test: area under the dose-response curve of % viability (trapezoidal, 11 doses) (% viability x log10 concentration); higher = less cytotoxic; details: SB.mhdgc-1 (hereditary c.1380delA CDH1 gastric cancer)
In short: as §1

[4] = system: SB.msgc-1; test: as above; details: SB.msgc-1 (sporadic gastric cancer)
In short: as §1

Structure (SMILES)	viability [1] [%]	viability [2] [%]	area under the dose-response curve [3]	area under the dose-response curve [4]
COc1c(O)cc2c(c1O)[C@@H]1O[C@H](CO)[C@@H](O)[C@H](O)[C@H]1OC2=O [Bergenin] (top concentration 46.0829 µM)	88.2	115	571	567
C[N+](C)(C)CC(=O)O.[Cl-] [Betaine] (top concentration 46.0829 µM)	46.7	74	426	507
CCC(=O)OCC(=O)[C@@]1(OC(=O)CC)[C@@H](C)C[C@H]2[C@@H]3CCC4=CC(=O)C=C[C@]4(C)[C@@]3(F)[C@@H](O)C[C@@]21C [Betamethasone dipropionate] (top concentration 46.0829 µM)	48.5	89.9	476	537
CCCCC(=O)O[C@]1(C(=O)CO)[C@H](C)C[C@H]2[C@@H]3CCC4=CC(=O)C=C[C@]4(C)[C@@]3(F)[C@@H](O)C[C@@]21C [Betamethasone valerate] (top concentration 46.0829 µM)	110	102	478	543
C[C@H]1CC2C3CCC/4=C/C(=O)/C=C\[C@]4(C)[C@@]3(F)[C@@H](O)C[C@]2(C)[C@@]1(O)C(=O)CO (some centres not stated) [Betamethasone] (top concentration 46.0829 µM)	60	65.2	512	571
O=C(O)C1=NC(C(=O)O)CC(/C=C/N2c3cc(O)c(OC4OC(CO)C(O)C(O)C4O)cc3CC2C(=O)O)=C1 (configuration not stated) [Betanin] (top concentration 46.0829 µM)	133	78.6	628	331
CC(C)NCC(O)COc1ccc(CCOCC2CC2)cc1 (configuration not stated) [Betaxolol hydrochloride] (top concentration 46.0829 µM)	129	102	610	539
CC(C[N+](C)(C)C)OC(N)=O (configuration not stated) [Bethanechol chloride] (top concentration 46.0829 µM)	119	102	573	563
C=C(C)[C@@H]1CC[C@]2(C(=O)O)CC[C@]3(C)[C@H](CC[C@@H]4[C@@]5(C)CC[C@H](O)C(C)(C)[C@@H]5CC[C@]43C)[C@@H]12 [Betulinic acid] (top concentration 46.0829 µM)	76.1	48.8	583	474
C=C(c1ccc(C(=O)O)cc1)c1cc2c(cc1C)C(C)(C)CCC2(C)C [Bexarotene] (top concentration 46.0829 µM)	108	68.6	513	457
CC(O)(C[S+](=O)([O-])c1ccc(F)cc1)C(=O)Nc1ccc(C#N)c(C(F)(F)F)c1 (configuration not stated) [Bicalutamide] (top concentration 46.0829 µM)	2.85	0.377	314	183
CC(C)(C)[C@]1(O)C[C@@H]2OC(=O)C[C@@]23C(=O)O[C@@H]2OC(=O)[C@H](O)C213 (some centres not stated) [Bilobalide] (top concentration 46.0829 µM)	109	80.6	577	501
CCNC(=O)CCC/C=C\C[C@@H]1[C@@H](/C=C/C(O)CCc2ccccc2)[C@@H](O)C[C@@H]1O (some centres not stated) [Bimatoprost] (top concentration 46.0829 µM)	62.2	95.7	559	552
CC(C)(OCc1nn(Cc2ccccc2)c2ccccc12)C(=O)O [Bindarit] (top concentration 46.0829 µM)	72.5	23.8	530	310
COC1=CC=C(C=C1)C/2=C/OC3=C(C(=CC(=C3)O)O)C2=O [Biochanin A] (top concentration 46.0829 µM)	120	119	503	575
N=C1S/C(=C\c2ccc(-c3ccc4c(c3)C(=O)NC4=O)o2)C(=O)N1c1ccc(Br)cc1 [Bioymifi] (top concentration 46.0829 µM)	1.27	35.7	417	439
OC(CCN1CCCCC1)(C2CC\3CC2\C=C3)C4=CC=CC=C4 (configuration not stated) [Biperiden] (top concentration 46.0829 µM)	95.5	119	575	576
CC[C@H](NC(=O)[C@H](C)NC)C(=O)N1C[C@@H](O)C[C@H]1Cc1c(-c2[nH]c3cc(F)ccc3c2C[C@@H]2C[C@H](O)CN2C(=O)[C@H](CC)NC(=O)[C@H](C)NC)[nH]c2cc(F)ccc12 [Birinapant] (top concentration 46.0829 µM)	25.4	32.2	315	399
CC(C)NCC(O)COc1ccc(COCCOC(C)C)cc1 (configuration not stated) [Bisoprolol] (top concentration 46.0829 µM)	107	119	508	555
Cc1c(N)nc([C@H](CC(N)=O)NC[C@@H](N)C(N)=O)nc1C(=O)N[C@H](C(=O)N[C@@H](C)[C@H](O)[C@@H](C)C(=O)N[C@@H](C(=O)NCCc1nc(-c2nc(C(=O)NCCC[S+](C)C)cs2)cs1)[C@@H](C)O)C(O[C@H]1O[C@H](CO)[C@H](O)[C@@H](O)[C@H]1O[C@H]1O[C@H](CO)[C@@H](O)[C@H](OC(N)=O)[C@@H]1O)c1c[nH]cn1 (some centres not stated) [Bleomycin sulfate] (top concentration 46.0829 µM)	49.9	55.3	451	425
CC(C)C[C@H](NC(=O)[C@H](Cc1ccccc1)NC(=O)c1cnccn1)B(O)O [Bortezomib] (top concentration 46.0829 µM)	3.74	3.19	157	137
COc1cc(Nc2c(C#N)cnc3cc(OCCCN4CCN(C)CC4)c(OC)cc23)c(Cl)cc1Cl [Bosutinib] (top concentration 46.0829 µM)	15.6	36.6	494	441

Structure (SMILES)	viability [1] [%]	viability [2] [%]	area under the dose-response curve [3]	area under the dose-response curve [4]
Cc1cc2c(F)c(Oc3ncnn4cc(OC[C@@H](C)O)c(C)c34)ccc2[nH]1 [Brivanib] (top concentration 46.0829 µM)	20.9	58.9	504	499
O=c1[nH]c(=O)n([C@H]2C[C@H](O)[C@@H](CO)O2)cc1/C=C/Br [Brivudine] (top concentration 46.0829 µM)	121	112	563	487
CN(Cc1cc(Br)cc(Br)c1N)C1CCCCC1 [Bromhexine hydrochloride] (top concentration 46.0829 µM)	106	105	578	575
CCCC1OC2C[C@H]3[C@@H]4CCC5=CC(=O)C=C[C@]5(C)[C@H]4C(O)C[C@]3(C)[C@]2(C(=O)CO)O1 (some centres not stated) [Budesonide] (top concentration 46.0829 µM)	78.6	62.9	512	552
CCCCOc1ccc(CC(=O)NO)cc1 [Bufexamac] (top concentration 46.0829 µM)	1.95	56.1	479	494
COc1cc(OC)c(C(=O)CCCN2CCCC2)c(OC)c1 [Buflomedil hydrochloride] (top concentration 46.0829 µM)	89.9	86.9	514	487
CCCCNc1cc(C(=O)O)cc([S+](N)(=O)[O-])c1Oc1ccccc1 [Bumetanide] (top concentration 46.0829 µM)	120	116	525	569
CC(NC(C)(C)C)C(=O)c1cccc(Cl)c1 (configuration not stated) [Bupropion hydrochloride] (top concentration 46.0829 µM)	89.5	102	522	514
C[S+](=O)([O-])OCCCCO[S+](C)(=O)[O-] [Busulfan] (top concentration 46.0829 µM)	23.2	52.1	501	510
CCCC[S+](=N)([O-])CCC(N)C(=O)O (configuration not stated) [Buthionine sulphoximine] (top concentration 46.0829 µM)	111	103	517	524
Clc1ccc(CCC(Cn2ccnc2)Sc2c(Cl)cccc2Cl)cc1 (configuration not stated) [Butoconazole nitrate] (top concentration 46.0829 µM)	24.9	31.7	426	456
CCCC[N+]1(C)[C@@H]2CC(OC(=O)[C@H](CO)c3ccccc3)C[C@H]1[C@@H]1O[C@@H]12 (some centres not stated) [Butylscopolamine bromide] (top concentration 46.0829 µM)	109	116	579	527
C=C1C(=O)OC(CCCCCCCC)C1C(=O)O (configuration not stated) [C-75] (top concentration 46.0829 µM)	94.9	54.4	530	560
COc1ccc([S+](=O)([O-])Nc2cc(-c3c(O)ccc4ccccc34)c(O)c3ccccc23)cc1 [C-188-9] (top concentration 46.0829 µM)	3.52	43.1	423	469
CCCNC(=O)[C@H]1O[C@@H]1C(=O)N[C@H](C(=O)N1CCC[C@H]1C(=O)OC)C(C)CC (some centres not stated) [CA-074 Me] (top concentration 46.0829 µM)	19.7	13.6	512	516
O=C(NCc1ccccc1)[C@H](Cc1ccccc1)NC(=O)[C@H]1O[C@@H]1C(=O)NCCc1ccc(O)cc1 [CAA0225] (top concentration 46.0829 µM)	45.6	57.1	500	466
CC[C@H](NC1=C2N=C[NH]C2=NC=N1)C/3=N/C4=C(C(=CC=C4)F)C(=O)N3C5=CC=CC=C5 [CAL-101] (top concentration 46.0829 µM)	9.41	28.5	436	455
OCCNC1CCCc2c1[nH]c1ccc(-c3ccccc3)cc21 (configuration not stated) [CASIN] (top concentration 46.0829 µM)	0.554	28.3	481	500
c1cc(OCCN2CCCCC2)cc(-c2n[nH]c3ccc(-c4nc[nH]n4)cc23)c1 [CC-401] (top concentration 46.0829 µM)	44.7	76.6	500	517
Cc1c(CCOc2ccc(C(=O)O)cc2)c2cc(Cl)ccc2n1C(c1ccccc1)c1ccccc1 [CDIBA] (top concentration 46.0829 µM)	48.1	82.8	531	543
Cc1ccc(Nc2cc(-c3cccc(N4C(=O)c5ccccc5C4=O)c3)ncn2)cc1N[S+](C)(=O)[O-] [CDK9 inhibitor] (top concentration 46.0829 µM)	43.4	31.5	423	492
